Calls of active or inactive are those of the source. No rule for the calls is given here. Where only a bound is given, the exact number is not on record here.

This assay deals with Drosophila melanogaster bursicon receptor LGR2 (rickets). Description: inhibition of bursicon-stimulated LGR2 cAMP signaling – cell-based, HEK293, CRE-luciferase, beta-gal normalized, dry powder, set 2, dose response (AID 743508). The following applies: HEK293 LGR2 CRE-luciferase cAMP reporter, antagonist.

As usually defined, the IC50 is the concentration needed to halve the response being measured. For `C[C@H](CO)N1C[C@H](C)[C@H](CN(C)C(=O)Nc2ccccc2)OCCCC[C@H](C)Oc2ccc(NC(=O)NC3CCCCC3)cc2C1=O`, the IC50 is below 35 µM.

As for `C[C@H](CO)N1C[C@H](C)[C@H](CN(C)C(=O)Nc2ccccc2)OCCCC[C@H](C)Oc2ccc(NC(=O)C3CCCCC3)cc2C1=O`, the IC50 is below 35 µM.

Take `C[C@H](CO)N1C[C@H](C)[C@H](CN(C)C(=O)Nc2ccc(C(F)(F)F)cc2)OCCCC[C@H](C)Oc2ccc(NC(=O)CCC(F)(F)F)cc2C1=O`: the concentration for half-maximal inhibition (IC50) is below 35 µM.

For the compound `C[C@H](CO)N1C[C@H](C)[C@H](CN(C)C(=O)Nc2ccc(F)cc2)OCCCC[C@H](C)Oc2ccc(NC(=O)C3CCCCC3)cc2C1=O`, the IC50 was below 35 µM.

Regarding `COc1ccc(S(=O)(=O)N(C)C[C@@H]2OCCCC[C@H](C)Oc3ccc(NS(=O)(=O)c4ccc(Cl)cc4)cc3C(=O)N([C@@H](C)CO)C[C@@H]2C)cc1`, the IC50 was below 35 µM.

For `COc1ccc(NC(=O)N(C)C[C@@H]2OCCCC[C@H](C)Oc3ccc(NC(=O)C4CCCCC4)cc3C(=O)N([C@H](C)CO)C[C@@H]2C)cc1`, the IC50 is below 35 µM.

For `Cc1noc(C)c1S(=O)(=O)Nc1ccc2c(c1)C(=O)N([C@H](C)CO)C[C@H](C)[C@H](CN(C)C(=O)Nc1ccc(F)cc1)OCCCC[C@@H](C)O2`, the IC50 was > 35 µM (inactive).

As for `C[C@@H]1CN([C@@H](C)CO)C(=O)c2cc(NS(C)(=O)=O)ccc2O[C@@H](C)CCCCO[C@@H]1CN(C)Cc1ccc(C(F)(F)F)cc1`, the IC50 was > 35 µM (inactive).

As to `COc1ccc(NC(=O)Nc2ccc3c(c2)C(=O)N([C@H](C)CO)C[C@H](C)[C@H](CN(C)CC2CCCCC2)OCCCC[C@H](C)O3)cc1`, the IC50 was > 35 µM (inactive).

As for `C[C@H](CO)N1C[C@H](C)[C@H](CN(C)C(=O)Nc2cccc3ccccc23)OCCCC[C@H](C)Oc2ccc(NC(=O)CCC(F)(F)F)cc2C1=O`, the IC50 was below 35 µM.

Turning to `C[C@H]1CCCCO[C@@H](CN(C)C(=O)Nc2ccc(F)cc2)[C@@H](C)CN([C@@H](C)CO)C(=O)c2cc(NC(=O)C3CCCCC3)ccc2O1`, the IC50 was below 35 µM.

As for `COc1ccc(S(=O)(=O)Nc2ccc3c(c2)C(=O)N([C@@H](C)CO)C[C@@H](C)[C@H](CN(C)C(=O)Nc2cccc4ccccc24)OCCCC[C@H](C)O3)cc1`, the IC50 was > 35 µM (inactive).

Turning to `CC(C)NC(=O)Nc1ccc2c(c1)C(=O)N([C@H](C)CO)C[C@@H](C)[C@H](CN(C)S(C)(=O)=O)OCCCC[C@H](C)O2`, the IC50 was > 35 µM (inactive).

Regarding `COc1ccc(S(=O)(=O)Nc2ccc3c(c2)C(=O)N([C@@H](C)CO)C[C@H](C)[C@@H](CN(C)C(=O)Nc2cccc4ccccc24)OCCCC[C@H](C)O3)cc1`, the IC50 was > 35 µM (inactive).

Take `C[C@H](CO)N1C[C@H](C)[C@H](CN(C)C(=O)Nc2ccccc2)OCCCC[C@H](C)Oc2ccc(NC(=O)Nc3ccc4c(c3)OCO4)cc2C1=O`: the IC50 is below 35 µM.

As to `C[C@H](CO)N1C[C@H](C)[C@H](CN(C)C(=O)Nc2ccccc2)OCCCC[C@H](C)Oc2ccc(NC(=O)CCC(F)(F)F)cc2C1=O`, the IC50 was below 35 µM.

On to `C[C@H](CO)N1C[C@H](C)[C@H](CN(C)C(=O)Nc2ccc(F)cc2)OCCCC[C@H](C)Oc2ccc(NC(=O)Nc3ccc(F)cc3)cc2C1=O`, for which the 50% inhibitory concentration (IC50) was below 35 µM.

On to `COc1ccc(S(=O)(=O)Nc2ccc3c(c2)C(=O)N([C@H](C)CO)C[C@H](C)[C@H](CN(C)S(=O)(=O)c2ccc(F)cc2)OCCCC[C@@H](C)O3)cc1`, for which the IC50 is > 35 µM (inactive).

As to `C[C@H](CO)N1C[C@H](C)[C@H](CN(C)C(=O)Nc2ccc3c(c2)OCO3)OCCCC[C@H](C)Oc2ccc(NC(=O)C3CCCCC3)cc2C1=O`, the IC50 is below 35 µM.

Consider `Cc1ccc(S(=O)(=O)Nc2ccc3c(c2)C(=O)N([C@H](C)CO)C[C@@H](C)[C@H](CN(C)S(=O)(=O)c2cccs2)OCCCC[C@@H](C)O3)cc1`, for which the IC50 is > 35 µM (inactive).

As for `COc1ccc(S(=O)(=O)N(C)C[C@@H]2OCCCC[C@H](C)Oc3ccc(NS(=O)(=O)c4ccc(F)cc4)cc3C(=O)N([C@@H](C)CO)C[C@@H]2C)cc1`, the IC50 was below 35 µM.

As for `C[C@H](CO)N1C[C@H](C)[C@H](CN(C)C(=O)Nc2ccc(C(F)(F)F)cc2)OCCCC[C@H](C)Oc2ccc(NC(=O)NC3CCCCC3)cc2C1=O`, the IC50 was below 35 µM.

Regarding `C[C@H]1CCCCO[C@@H](CN(C)C(=O)Nc2ccc(C(F)(F)F)cc2)[C@@H](C)CN([C@@H](C)CO)C(=O)c2cc(NC(=O)CCC(F)(F)F)ccc2O1`, the IC50 is below 35 µM.

For `C[C@H](CO)N1C[C@H](C)[C@H](CN(C)C(=O)Cc2ccccc2)OCCCC[C@H](C)Oc2ccc(NC(=O)Nc3ccc(C(F)(F)F)cc3)cc2C1=O`, the IC50 was > 35 µM (inactive).

On to `C[C@H]1CCCCO[C@@H](CN(C)C(=O)Nc2ccc3c(c2)OCO3)[C@@H](C)CN([C@@H](C)CO)C(=O)c2cc(NC(=O)NC3CCCCC3)ccc2O1`, for which the IC50 was below 35 µM.

For `C[C@H](CO)N1C[C@H](C)[C@H](CN(C)C(=O)Nc2cccc3ccccc23)OCCCC[C@H](C)Oc2ccc(NC(=O)NC3CCCCC3)cc2C1=O`, the IC50 is below 35 µM.

For the compound `COc1ccc(NC(=O)N(C)C[C@@H]2OCCCC[C@H](C)Oc3ccc(NC(=O)NC4CCCCC4)cc3C(=O)N([C@H](C)CO)C[C@@H]2C)cc1`, the concentration for half-maximal inhibition (IC50) was below 35 µM.

For `C[C@@H]1CCCCO[C@H](CN(C)CC2CCCCC2)[C@H](C)CN([C@H](C)CO)C(=O)c2cc(NS(=O)(=O)c3ccccc3)ccc2O1`, the IC50 is below 35 µM.

As for `C[C@H]1CCCCO[C@H](CN(C)C(=O)Nc2cccc3ccccc23)[C@@H](C)CN([C@@H](C)CO)C(=O)c2cc(NS(=O)(=O)c3cn(C)cn3)ccc2O1`, the IC50 was > 35 µM (inactive).

`C[C@H](CO)N1C[C@H](C)[C@H](CN(C)C(=O)Nc2ccc(F)cc2)OCCCC[C@H](C)Oc2ccc(NC(=O)Nc3ccccc3)cc2C1=O`: the IC50 was below 35 µM.

`C[C@H]1CCCCO[C@@H](CN(C)C(=O)Nc2ccccc2)[C@@H](C)CN([C@@H](C)CO)C(=O)c2cc(NC(=O)NC3CCCCC3)ccc2O1`: the IC50 is below 35 µM.

Consider `C[C@@H]1CN([C@@H](C)CO)C(=O)c2cc(NC(=O)c3ccncc3)ccc2O[C@@H](C)CCCCO[C@H]1CN(C)C(=O)Nc1cccc2ccccc12`, for which the IC50 is > 35 µM (inactive).

With `C[C@H](CO)N1C[C@H](C)[C@H](CN(C)C(=O)Nc2cccc3ccccc23)OCCCC[C@H](C)Oc2ccc(NC(=O)C3CCCCC3)cc2C1=O`, the IC50 is below 35 µM.

Take `C[C@H](CO)N1C[C@H](C)[C@H](CN(C)C(=O)Nc2ccc(F)cc2)OCCCC[C@H](C)Oc2ccc(NC(=O)NC3CCCCC3)cc2C1=O`: the IC50 was below 35 µM.

Take `C[C@H](CO)N1C[C@H](C)[C@H](CN(C)C(=O)Nc2ccccc2)OCCCC[C@H](C)Oc2ccc(NC(=O)Nc3ccccc3)cc2C1=O`: the IC50 was below 35 µM.

Turning to `C[C@H](CO)N1C[C@H](C)[C@H](CN(C)C(=O)Nc2cccc3ccccc23)OCCCC[C@H](C)Oc2ccc(NC(=O)c3ccccc3)cc2C1=O`, the half-maximal inhibitory concentration (IC50) was below 35 µM.

As for `C[C@H](CO)N1C[C@H](C)[C@H](CN(C)C(=O)Nc2ccc3c(c2)OCO3)OCCCC[C@H](C)Oc2ccc(NC(=O)NC3CCCCC3)cc2C1=O`, the IC50 is below 35 µM.

As for `C[C@H]1CCCCO[C@@H](CN(C)S(=O)(=O)c2ccc(Cl)cc2)[C@@H](C)CN([C@@H](C)CO)C(=O)c2cc(NC(=O)NC3CCCCC3)ccc2O1`, the IC50 was below 35 µM.
